Laboratory results published in patent US12667101B2, “Picolinamide derivatives useful as agricultural fungicides” (GLOBACHEM NV, priority 2019, dated 2026).
In brackets after ≈: the same amount, converted by molar mass.

The compounds below were run on Zymoseptoria tritici (assay: Fungicidal activity screen in amended agar, 96 well plates). Conditions: 168 h, 1% potato dextrose agar amended to 20, 2, 0.2 and 0.02 ppm, 10,000 spores/mL, 18° C., assessed after 7 days, read-out: Zymoseptoria (EC50 ranking of fungal growth vs DMSO controls).
Type: cell-based
Experimental: Compounds were screened in 96 well plates with 10 compounds per plate. Each compound was screened using agar amended to 20, 2, 0.2 and 0.02 ppm of the test material. Proline at 50 and 10 ppm and 0.2% DMSO were used respectively as positive and negative controls. Each test concentration and standard were tested twice on a plate.
Compounds were screened against Zymoseptoria tritici. The agar used in the test was 1% potato dextrose agar. Sufficient spores were added to the appropriate agar to give 10,000 spores/mL agar.
A ×10 stock solution in 2% DMSO was produced for each dose i.e. 200, 20, 2 and 0.2 ppm, and 10 μl of this added to the appropriate wells on the plate. An equivalent amount of 2% DMSO and Proline stock at 500 and 100 ppm were added for the controls. To each well, 90 μl of the appropriate agar spore suspension was added to give the final well concentrations outlined in the first paragraph.
Plates were incubated at room temperature (18° C.) and assessed after 7 days.
The amount of fungal growth in each well was compared to the DMSO controls and scored according to the following key: • A—EC50<2 ppm • B—2≤EC50<20 • C—EC50≥20 • D—No activity detected at the highest dose tested • NT—Not tested

**Q.** With COc1ccnc(C(=O)Nc2ccc3cc(Br)ccc3n2)c1OC(C)=O [Example 17, 2-((6-bromoquinolin-2-yl)carbamoyl)-4-methoxypyridin-3-yl acetate] as the compound, how does the EC50 read?
**A.** The EC50 was 2 to 20 µg/mL.

**Q.** With COc1ccnc(C(=O)Nc2ccc3nc(Oc4ccc(F)cc4)ccc3c2)c1O [Example 2, N-(2-(4-fluorophenoxy)quinolin-6-yl)-3-hydroxy-4-methoxypicolinamide] as the compound, how does the EC50 read?
**A.** The EC50 was < 2 µg/mL.

**Q.** Which EC50 does the source give for COc1ccnc(C(=O)Nc2ccc3nc(Oc4ccccc4Cl)ccc3c2)c1OC(C)=O [Example 30, 2-((2-(2-chlorophenoxy)quinolin-6-yl)carbamoyl)-4-methoxypyridin-3-yl acetate] here?
**A.** Its EC50 is 2 to 20 µg/mL.

**Q.** How did the EC50 turn out when COc1ccnc(C(=O)Nc2ccc3nc(OC(C)C)ccc3c2)c1OC(C)=O [Example 47, 2-((2-isopropoxyquinolin-6-yl)carbamoyl)-4-methoxypyridin-3-yl acetate] was run?
**A.** The EC50 was < 2 µg/mL.

**Q.** With COc1ccnc(C(=O)Nc2ccc3nc(N(C)c4cccnc4Cl)ccc3c2)c1OC(C)=O [Example 34, 2-((2-((2-chloropyridin-3-yl)(methyl)amino)quinolin-6-yl)carbamoyl)-4-methoxypyridin-3-yl acetate] as the compound, how does the EC50 read?
**A.** Its EC50 is ≥ 20 µg/mL.

**Q.** Which EC50 does the source give for COc1ccnc2c(=O)n(-c3ccc4nc(N(C)c5ccccc5Cl)ccc4c3)c(=S)oc12 [Example 42, 3-(2-((2-chlorophenyl)(methyl)amino)quinolin-6-yl)-8-methoxy-2-thioxo-2,3-dihydro-4H-pyrido[2,3-e][1,3]oxazin-4-one] here?
**A.** Its EC50 is 2 to 20 µg/mL (≈ 4.19 to 41.9 µM).

**Q.** How did the EC50 turn out when COc1ccnc2c(=O)n(-c3ccc4nc(N(C)c5cccnc5Cl)ccc4c3)c(=S)oc12 [Example 46, 3-(2-((2-chloropyridin-3-yl)(methyl)amino)quinolin-6-yl)-8-methoxy-2-thioxo-2,3-dihydro-4H-pyrido[2,3-e][1,3]oxazin-4-one] was run?
**A.** The EC50 was ≥ 20 µg/mL.

**Q.** With COc1ccnc(C(=O)Nc2ccc3ncc(Cc4ccccc4)cc3c2)c1O [Example 13, N-(3-benzylquinolin-6-yl)-3-hydroxy-4-methoxypicolinamide] as the compound, how does the EC50 read?
**A.** The EC50 was ≥ 20 µg/mL.

**Q.** With COc1ccnc(C(=O)Nc2ccc3nc(Oc4cccnc4Cl)ccc3c2)c1O [Example 27, N-(2-((2-chloropyridin-3-yl)oxy)quinolin-6-yl)-3-hydroxy-4-methoxypicolinamide] as the compound, how does the EC50 read?
**A.** Its EC50 is ≥ 20 µg/mL.

**Q.** How did the EC50 turn out when CCCOc1ccc2cc(NC(=O)c3nccc(OC)c3O)ccc2n1 [Example 3, 3-hydroxy-4-methoxy-N-(2-propoxyquinolin-6-yl)picolinamide] was run?
**A.** The EC50 was < 2 µg/mL.

**Q.** For COc1ccnc(C(=O)Nc2ccc3cc(Cc4ccccc4)ccc3n2)c1O [Example 14, N-(6-benzylquinolin-2-yl)-3-hydroxy-4-methoxypicolinamide], which EC50 is on record?
**A.** The EC50 was ≥ 20 µg/mL.

**Q.** Which EC50 does the source give for COc1ccnc(C(=O)Nc2ccc3nc(Sc4ccc(F)cc4)ccc3c2)c1O [Example 9, N-(2-((4-fluorophenyl)thio)quinolin-6-yl)-3-hydroxy-4-methoxypicolinamide] here?
**A.** The EC50 was < 2 µg/mL.

**Q.** Which EC50 does the source give for COc1ccnc(C(=O)Nc2ccc3nc(N(C)c4ccc(F)cc4)ccc3c2)c1O [Example 8, N-(2-((4-fluorophenyl)(methyl)amino)quinolin-6-yl)-3-hydroxy-4-methoxypicolinamide] here?
**A.** Its EC50 is < 2 µg/mL.

**Q.** With COc1ccnc2c(=O)n(-c3ccc4nc(OC(C)C(C)C)ccc4c3)c(=S)oc12 (centres unmarked) [Example 39, 8-methoxy-3-(2-((3-methylbutan-2-yl)oxy)quinolin-6-yl)-2-thioxo-2,3-dihydro-4H-pyrido[2,3-e][1,3]oxazin-4-one] as the compound, how does the EC50 read?
**A.** The EC50 was ≥ 20 µg/mL.
